Assay results from patent US9284528B2, “Use of stem cell conditioned medium to inhibit oxidation for anti-aging skin” (GROWGENE BIOTECH INC., priority 2014, dated 2016).

Experiment: ABTS free radicals scavenging assay (antioxidant assay kit, Cayman)
Format: biochemical
Settings: 0.0625-1 mM tested; 5 minutes room temperature; absorbance 750 nm
Protocol: An antioxidant assay kit (Cayman) was used for this assay according to the instructions. Each of samples including 10 μl of 6.25%˜100% conditioned medium or 0.0625˜1 mM L-ascorbic acid (L-AA) was mixed with 10 μl of metmyoglobin, 150 μl chromogen, and 40 μl hydrogen peroxide for reaction at room temperature for 5 minutes. Because stem cell conditioned medium (CM) is a composite component, a percentage (%) instead of a concentration (mM) is presented as the unit of CM herein.
Referring to FIG. 2A, it is a representative diagram showing the effect of WJMSC-CM on scavenging ABTS free radicals. Various concentration of L-ascorbic acid (L-AA) or stem cell conditioned medium (CM) was mixed with an appropriate amount of ABTS and oxidants for reaction. ABTS has an absorption peak at 750 nm. This assay is based on the ability of antioxidants to reduce ABTS into its colourless form and the extent of decolourisation corresponding to the absorbance reduction of ABTS.

SMILES: O=C1O[C@H]([C@@H](O)CO)C(O)=C1O [L-ascorbic acid]
- IC50: 806 µM
